Data reported in patent US8883801B2, “Substituted pyrazolo[1,5-a]pyrimidines as mTOR inhibitors” (Merck Sharp & Dohme Corp., priority 2010, dated 2014).
Read-outs that look alike come from different tables or passages of the source.

Experiments:
[1] = target: human mTOR enzyme (Homo sapiens, UniProt P42345); assay: HTRF mTOR enzyme (kinase) assay; assay type: biochemical; conditions: 5 μM ATP, 0.2 μM GST-S6K, read-out: hMTOR IC50
[2] = test system: mTORC2 activity: phosphorylated AKT Ser473 (pAKT S473) in PC3 cells; assay: mTOR target engagement assay, immunofluorescent cell-based, mTORC2 readout; conditions: Homo sapiens, PC-3, 1.5 h, 90 min treatment
Experimental: The target engagement of mTOR kinase inhibitors was evaluated using an immunofluorescent cell-based assay. In this assay, inhibition of mTORC1 activity was measured by the reduction in the level of phosphorylated 4E-BP1Thr37/46 (p4E-BP1 Thr37/46), and inhibition of mTORC2 activity was measured by the reduction of phosphorylated AKTSer473 (pAKT S473).
PC3 cells (prostate tumor cell-line that contains a mutation in the tumor suppressor PTEN, that promotes the phosphorylation and activation of AKT and 4E-BP1) were used in the immunofluorescence assay. PC3 cells were seeded on 384 well plates (black clear bottom, Matrix #4332) overnight. PC3 cells were then treated with 40 μl of the serially diluted test compounds (in 5% fetal bovine serum, F12 medium containing 0.25% DMSO) for ninety minutes at 37° C. The test compound solution was removed, and the plates were washed gently two times with 25 μl phosphate buffered saline (PBS). The cells were fixed by adding 25 μl of Prefer reagent (from Anatech LTD, Cat#414, a glyoxal fixative for fixing proteins within a cell) for sixty minutes followed by three washes with PBS. 5% Goat serum in PBS/0.3% Triton was used to block non-specific binding (60 minutes).
The primary antibodies targeting pAKT S473 and p4E-BP1 Thr37/46 were diluted into PBS/0.3% Triton and incubated with the cells overnight at 4° C. The antibodies targeting pAKTS473 (Cat#4085, Cell signaling) and p4E-BP1 Thr37/46 (Cat#2855, Cell signaling) were used at a 1:100 dilution. Plates were washed three times with PBS/0.1% Tween 20 before adding the secondary antibody at a 1:200 dilution. (goat anti-rabbit containing a fluorescent label, Alexa Fluor 488, Cat#A11008, Invitrogen) in PBS/0.3% Triton for 60 minutes.
Finally, the plates were washed three times with PBS/0.1% Tween 20 and the fluorescent intensity was read using an Analyst HT from Molecular Devices. The fluorescent intensity values from the serially diluted compound treatment group were analyzed using the Xlfit 4 program ([…]) (Formula 205: Y=Bottom+(Top-Bottom)/(1+(IC50/X)^Hillslope) to generate the IC50 value. Where Top is the maximum signal without Compound (+DMSO only) and Bottom represents maximum inhibition. Y is the fluorescence at some compound concentration. The control used to determine the fluorescent intensities for 100% pAKT S473 or 100% phosphorylated p4E-BP1 Thr37/46 were measured from untreated wells that contained only DMSO, instead of test compound.

Chain of human mTOR enzyme (P42345 1360-2549 limits assumed): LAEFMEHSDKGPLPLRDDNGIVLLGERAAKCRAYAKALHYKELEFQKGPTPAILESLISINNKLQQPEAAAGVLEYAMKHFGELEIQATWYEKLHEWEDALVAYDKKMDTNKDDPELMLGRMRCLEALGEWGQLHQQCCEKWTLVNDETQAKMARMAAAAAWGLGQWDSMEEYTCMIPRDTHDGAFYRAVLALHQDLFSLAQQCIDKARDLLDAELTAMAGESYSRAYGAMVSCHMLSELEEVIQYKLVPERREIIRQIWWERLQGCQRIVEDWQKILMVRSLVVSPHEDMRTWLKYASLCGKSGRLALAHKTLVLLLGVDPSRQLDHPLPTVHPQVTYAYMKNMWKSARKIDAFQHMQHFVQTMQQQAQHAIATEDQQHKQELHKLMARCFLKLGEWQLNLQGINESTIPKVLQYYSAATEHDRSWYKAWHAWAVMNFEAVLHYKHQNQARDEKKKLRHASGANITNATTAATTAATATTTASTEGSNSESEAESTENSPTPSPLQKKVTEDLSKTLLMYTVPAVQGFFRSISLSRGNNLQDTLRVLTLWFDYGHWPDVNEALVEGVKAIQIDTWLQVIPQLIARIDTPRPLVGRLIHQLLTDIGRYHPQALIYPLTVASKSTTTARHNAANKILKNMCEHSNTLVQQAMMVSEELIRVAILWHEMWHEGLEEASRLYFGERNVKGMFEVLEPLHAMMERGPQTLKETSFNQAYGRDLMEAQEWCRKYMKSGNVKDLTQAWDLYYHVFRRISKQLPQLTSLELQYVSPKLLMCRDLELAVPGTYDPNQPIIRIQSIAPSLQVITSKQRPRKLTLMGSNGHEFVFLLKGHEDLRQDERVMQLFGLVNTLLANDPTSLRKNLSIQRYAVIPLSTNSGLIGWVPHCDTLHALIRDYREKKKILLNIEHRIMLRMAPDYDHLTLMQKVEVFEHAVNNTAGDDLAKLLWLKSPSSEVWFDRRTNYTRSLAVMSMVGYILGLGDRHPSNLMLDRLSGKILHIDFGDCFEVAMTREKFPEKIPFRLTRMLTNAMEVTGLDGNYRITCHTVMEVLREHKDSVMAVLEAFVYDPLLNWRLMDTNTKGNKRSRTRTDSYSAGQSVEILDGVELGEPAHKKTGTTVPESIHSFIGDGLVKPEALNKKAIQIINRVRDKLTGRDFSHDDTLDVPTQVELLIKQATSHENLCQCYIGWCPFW

SMILES	IC50 ([1]; numeric value)	IC50 ([2]; numeric value)	IC50 ([1]; rated class)	IC50 ([2]; rated class)
Nc1c(Br)c([C@H]2CC[C@]3(CC2)NC(=O)NC3=O)nc2c(-c3ccc(-c4ccccc4)nc3)cnn12 [Compound 72, 8-(7-amino-6-bromo-3-(6-phenylpyridin-3-yl)pyrazolo[1,5-a]pyrimidin-5-yl)-1,3-diazaspiro[4.5]decane-2,4-dione]	11.7 nM	870 nM	–	–
Nc1c(Br)c(C2CCC(N)(C(=O)O)CC2)nc2c(-c3ccc(-c4ccccc4)nc3)cnn12 (stereo not drawn) [Compound 73, 1-amino-4-(7-amino-6-bromo-3-(6-phenylpyridin-3-yl)pyrazolo[1,5-a]pyrimidin-5-yl)cyclohexanecarboxylic acid]	–	–	1 to 100 nM	5000 to 15000 nM
N#CC1(O)CCC(c2nc3c(-c4ccc(-c5ccccc5)nc4)cnn3c(N)c2Br)CC1 (stereo not drawn) [Compound 74, 4-(7-amino-6-bromo-3-(6-phenylpyridin-3-yl)pyrazolo[1,5-a]pyrimidin-5-yl)-1-hydroxycyclohexanecarbonitrile]	–	–	1 to 100 nM	2000 to 5000 nM
COC1(C#N)CCC(c2nc3c(-c4ccc(-c5ccccc5)nc4)cnn3c(N)c2Br)CC1 (stereo not drawn) [Compound 75, 4-(7-amino-6-bromo-3-(6-phenylpyridin-3-yl)pyrazolo[1,5-a]pyrimidin-5-yl)-1-methoxycyclohexane-carbonitrile]	–	–	1 to 100 nM	2000 to 5000 nM
Nc1c(Br)c([C@H]2CC[C@](O)(CC(=O)O)CC2)nc2c(-c3ccc(-c4ccccc4)nc3)cnn12 [Compound 77, 2-((1S,4S)-4-(7-amino-6-bromo-3-(6-phenylpyridin-3-yl)pyrazolo[1,5-a]pyrimidin-5-yl)-1-hydroxycyclohexyl)-acetic acid]	–	–	1 to 100 nM	1000 to 2000 nM
Nc1c(Br)c([C@H]2CC[C@@](O)(CC(=O)O)CC2)nc2c(-c3cnn(-c4ccccc4)c3)cnn12 [Compound 79, 2-((1R,4R)-4-(7-amino-6-bromo-3-(1-phenyl-1H-pyrazol-4-yl)pyrazolo[1,5-a]pyrimidin-5-yl)-1-hydroxycyclohexyl)-acetic acid]	–	–	1 to 100 nM	100 to 1000 nM

Other lines, results leading:

IC50 ([1]; numeric value)	IC50 ([2]; numeric value)	IC50 ([1]; rated class)	IC50 ([2]; rated class)	SMILES
–	–	1 to 100 nM	100 to 1000 nM	COC1(CO)CCC(c2nc3c(-c4ccc(-c5ccccc5)nc4)cnn3c(N)c2Br)CC1 (stereo not drawn) [Compound 82, (4-(7-amino-6-bromo-3-(6-phenylpyridin-3-yl)pyrazolo[1,5-a]pyrimidin-5-yl)-1-methoxycyclohexyl)methanol]
–	–	1 to 100 nM	1000 to 2000 nM	COCCOC1(CO)CCC(c2nc3c(-c4cnn(-c5ccccc5)c4)cnn3c(N)c2Br)CC1 (stereo not drawn) [Compound 83, (4-(7-amino-6-bromo-3-(1-phenyl-1H-pyrazol-4-yl)pyrazolo[1,5-a]pyrimidin-5-yl)-1-(2-methoxyethoxy)-cyclohexyl)methanol]
–	–	1 to 100 nM	100 to 1000 nM	CO[C@]1(CO)CC[C@@H](c2nc3c(-c4ccc(-c5ccccc5)nc4)cnn3c(N)c2C(C)=O)CC1 [Compound 84, 1-(7-amino-5-((1R,4R)-4-(hydroxymethyl)-4-methoxycyclohexyl)-3-(6-phenylpyridin-3-yl)pyrazolo[1,5-a]pyrimidin-6-yl)ethanone]
–	–	1 to 100 nM	100 to 1000 nM	CO[C@]1(CO)CC[C@H](c2nc3c(-c4ccc(-c5ccccc5)nc4)cnn3c(N)c2C(C)=O)CC1 [Compound 85, 1-(7-amino-5-((1S,4S)-4-(hydroxymethyl)-4-methoxycyclohexyl)-3-(6-phenylpyridin-3-yl)pyrazolo[1,5-a]pyrimidin-6-yl)ethanone]
–	–	1 to 100 nM	100 to 1000 nM	COCCOC1(CO)CCC(c2nc3c(-c4ccc(-c5ccccc5)nc4)cnn3c(N)c2C(C)=O)CC1 (stereo not drawn) [Compound 86, 1-(7-amino-5-(4-(hydroxymethyl)-4-(2-methoxyethoxy)-cyclohexyl)-3-(6-phenylpyridin-3-yl)pyrazolo[1,5-a]pyrimidin-6-yl)ethanone]
–	–	1 to 100 nM	100 to 1000 nM	COCCOC1(CO)CCC(c2nc3c(-c4cnn(-c5ccccc5)c4)cnn3c(N)c2C(C)=O)CC1 (stereo not drawn) [Compound 87, 1-(7-amino-5-(4-(hydroxymethyl)-4-(2-methoxyethoxy)-cyclohexyl)-3-(1-phenyl-1H-pyrazol-4-yl)pyrazolo[1,5-a]pyrimidin-6-yl)ethanone]
